According to a melting point compilation (Tetko et al.; mined from patent text by program, amines drawn as free bases though some values may be those of a salt):

SMILES	melting point [°C]
Cn1cc(C(=O)CCn2ccnc2)c2ccccc21	121 to 123
Nc1c(Br)cc(Br)c(O)c1Br	119
c1ccc2c(c1)CCN(c1ccncc1)C2	95 to 96
CN[C@@H](CC(C)C)C(=O)O	101 to 103
O=C(Nc1ccc(Oc2ccnc(NC3(CO)CCCC3)n2)c2ccccc12)c1cc(F)cc(N2CCOCC2)c1	115 to 117
O=[N+]([O-])c1cc2nc(O)c(O)nc2c2nccnc12	> 300
CN(C)CCCN1c2ccccc2C(c2ccccc2F)=Nc2cccnc21	92 to 94
CN1C(=O)C(NC(=O)Nc2ccccc2)N=C(c2ccccc2)c2ccccc21 (configuration not stated)	260 to 261
CCC(CC)(CO)CS(N)(=O)=O	66 to 68
c1ccc2c(c1)c1ccccc1c1cc(-c3ccc4c5ccccc5c5ccccc5c4c3)ccc21	356
CNc1ncnc2c1ncn2C1OC(CO)C(OC)C1(C)O (configuration not stated)	165
CNc1nc2ccccc2n1CCO	> 200
C=CCN1C(=O)COc2cc(Br)c(F)cc21	92
COc1cc2c3c(c1)nc(-c1ccccc1)n3CCC2=NO	235 to 238
N#Cc1ccc(Nc2nc(Oc3c(F)cccc3F)ccc2[N+](=O)[O-])cc1	234 to 236
N#CNc1ccccc1-c1ccc(Cl)cc1	106 to 107
O=C(O)[C@@H]1CCCN1Cc1cc2cc3c(cc2c2cc(O)ccc12)OCO3	205 to 206
CC(=O)Oc1cccc(C=Cc2ccc3ccccc3n2)c1	86 to 87
CC1(C)CC(N(C=O)C2CCCCC2)CC(C)(C)N1	105
Nc1ncc(-c2ccccc2COC2CCCCC2)s1	102
CCCCCCCC/C=C\CCCCCCCC1=C(O)C(=O)C=C(OC)C1=O	69.5 to 70.5

SMILES	melting point [°C]
Clc1ccc2[nH]c3c4c(Cl)cccc4nc-3cc2c1	221 to 222
O=[N+]([O-])c1ccc2[nH]cc(C3=CCNCC3)c2c1	250
CC(C)Oc1nc(N)nc2[nH]cnc12	204 to 206
Cc1nn(C)c(C#N)c1[N+](=O)[O-]	96 to 98
CCOP(=O)(OCC)c1cnc2ccc(C(F)(F)F)cc2c1	69
CC(CCc1ccc(F)cc1)(Cn1ccnc1)Sc1cccc(Cl)c1Cl (configuration not stated)	131 to 132
OCCCc1ccccc1N(Cc1ccccc1)Cc1ccccc1	71.5 to 73
Cc1ccc(N(c2ccc(C)cc2)c2ccc(-c3ccc(N(c4ccc(C)cc4)c4ccc(C)cc4)cc3)cc2)cc1	215 to 216
CCN(CC)C(=O)COc1cc(N)c(Cl)cc1C(=O)O	186 to 188
O=C1CN2C(=N1)NCc1c(Cl)cccc12	127 to 129
CCOCCc1c(N=[N+]=[N-])nc(NC(=O)NCC(=O)O)nc1-c1ccccc1	160
Cc1ncn(-c2cc(F)ccc2C#N)n1	117 to 118
O=CCCc1c[nH]c2ccc(F)cc12	79 to 80
Cc1nc2c(s1)-c1nc(Nc3ccc(N4CCOCC4)cc3)ncc1CC2	236 to 237
Cn1cnnc1C(N)(c1ccc(Cl)cc1)c1ccc2c(c1)c(-c1cccc(Cl)c1)nc1nnnn12 (configuration not stated)	220
CC1(C)CC(C)(O)C2CCC2(C)C1 (configuration not stated)	54 to 55
CSc1snc(OCC#CI)c1C#N	145 to 146
N#Cc1cnc2c(sc3ccc([N+](=O)[O-])cc32)c1O	> 305
CCOC(=O)c1cnc(Cl)c2c(C)n[nH]c12	180
O=C(O)c1ccc2c(c1)OC(c1cccc(Cl)c1)(c1cccc(Cl)c1)O2	166
CC(Nc1ncccc1C#N)c1c(Cl)cccc1Cl (configuration not stated)	84.4

Now from value to compound:

melting point [°C]	SMILES
136 to 140	Cc1cc(C)n(-c2nccc(Nc3ccc(Cl)cc3)n2)n1
131 to 133	O=C(Nc1cccc(C(=O)O)c1)Oc1ccccc1
122 to 128	COC(=O)c1[nH]c2c(OCc3ccccc3)cc([N+](=O)[O-])c(CCCl)c2c1C(=O)OC
151 to 152	CCOC(=O)Cn1c(=O)n(Cc2ccc(Cl)cc2)c(=O)c2c(C)c(C)sc21
171 to 172	C=Cc1c(C)c(NC(=O)CC(C)(C)C)c(C)c2c1OCC2c1ccc(C(C)C)cc1 (configuration not stated)
44 to 46	O=C(Nc1ccccc1N1CCc2cc(Cl)ccc21)c1ccccc1
189 to 191	COc1ccc(S(C)(=O)=O)cc1C(=O)O
114 to 115	Cc1c(C)c2c(c(C)c1OCc1ccccc1)C(=O)C(C)(C)O2
100	CC(=O)c1ccc(-n2cnc(C)c2)cc1
74 to 77	COc1ccc(C(=O)c2ccccc2F)c(Cl)c1Cl
199	Cc1csc2[nH]c(C(=O)c3ccccc3)cc12
169 to 170	CCOC(=O)c1cc2ccccc2n(-c2c(Cl)cccc2Cl)c1=N
154 to 155	COc1cc2cc(COC(C)=O)c(COC(C)=O)c(C=O)c2cc1OC
80	CCO[C@@H]1C[C@@H](C(=O)NC)N(S(=O)(=O)c2ccc(Cl)c(COc3cccc4c(-n5ccnc5)cc(C)nc34)c2Cl)C1
178 to 180	CC(C)(C)c1ccc(C2(C(N)=O)CC2)cc1
162 to 163	Cc1ccc(S(=O)(=O)NC(=O)C2C(=O)CC(C(C)(C)C)CC2=O)cc1 (configuration not stated)
225 to 226	CCOC(=O)c1c2n(c3ccc(F)cc3c1=O)CCS2
100 to 110	CC(C)CON=Cc1ccc2c(c1)c1cc(-c3ccc(Cl)cc3Cl)c(=O)n(C)c1n2C
228 to 230	O=C(NCCc1ccccc1)c1ccc(S(=O)(=O)NC(=O)c2ccc(C(=O)NCCO)nc2)cc1
171 to 173	Cc1cnc2sc(S(=O)(=O)Cc3ccccc3)nn2c1=O

melting point [°C]	SMILES
120 to 122	CN(C)C=CC(=O)c1cccc(N(C)C(=O)C2CC2)c1
238 to 240	COc1cc2c3c(n(C)c(=O)c2cc1OC)-c1cc(OCc2ccccc2)c(OCc2ccccc2)cc1C3=O
210 to 218	Cc1ccc(Cn2c(=O)[nH]c3cc(Cl)cc(Cl)c3c2=O)cc1
205 to 206	COC(=O)c1ccc(Nc2ccc([N+](=O)[O-])cc2C(=O)OC)cc1
146 to 148	COc1cc(-c2nc3sccn3c2-c2ccnc(NC3CCN(S(=O)(=O)C4CC4)CC3)n2)ccc1F
91 to 94	CCC(C)(C)c1ccc(OCCCNC(=O)c2cc(N=C=S)c3ccccc3c2O)c(C(C)(C)CC)c1
124 to 125	O=c1cc(-c2ccccc2)oc2ccc(OCCCCN3CCC(O)CC3)cc12
210 to 211	CC(Cl)(Cl)C(NC(=O)c1ccc(C(F)(F)F)cc1)NC(=NC#N)Nc1ccc(Cl)nc1 (configuration not stated)
50 to 52	COC(=O)C[C@H](Cc1ccccc1)NC(=O)OCC(C)C
141	CCOC(=O)C(=O)Cc1ncc([N+](=O)[O-])n1C
100 to 101	CCOC(=O)c1cnn(-c2ccc(OC)cc2)c1Cl
> 300	O=c1[nH]c2ccccc2n2cnc(-c3ccc(F)cc3)c12
228 to 229	CCN(CC)CC(=O)Nc1cccc2c1C(=O)c1c(NC(=O)CN(CC)CC)cccc1C2=O
122 to 124	C=CCOc1cc(C)ccc1N1C(=O)c2ccccc2C1=O
113 to 114	O=S(=O)(Cl)c1cccc2c(I)cccc12
168 to 169	N=C(NCc1cnccn1)NN=Cc1c(Cl)cccc1Cl
< 255	O=Cc1ccc(OC2OC(CO)C(O)C(O)C2O)c2ccccc12 (configuration not stated)
185 to 187	COc1ccc(S(=O)(=O)C(C)(Cc2ccc3ccccc3c2)C(=O)NO)cc1 (configuration not stated)
86.4 to 87.6	CC1=C(C(=O)c2ccc3c(c2)CCN(C(N)=O)C3)C(C)(C)CCC1
247 to 248	COc1cc2nc3c(c(-c4cc(OC)c(O)c(OC)c4)c2cc1OC)C(=O)OC3

melting point [°C]	SMILES
58.5	CCC1(COCCCCCCOc2ccc(C(=O)O)cc2)COC1
252 to 254	COc1ccc(S(=O)(=O)c2ccc(NC(=O)NC34CC5CC(CC(C5)C3)C4)cc2)nn1
177 to 178	CON=CC(C)(C)C(O)(COc1cccc2ccccc12)Cn1ccnc1 (configuration not stated)
201 to 202	CC(=O)NCC1CN(c2ccc(N3CCN(c4nc5cccc(F)c5o4)CC3)c(F)c2)C(=O)O1 (configuration not stated)
232	CC(C)(C)NS(=O)(=O)c1cccc(NC(=O)c2cnn3c(C(F)(F)F)cc(-c4ccc(C(F)(F)F)cc4)nc23)c1
207 to 208	CC(=O)Oc1ccc(C(=O)Nc2cc([N+](=O)[O-])ccc2C)cc1
153	Cn1c([N+](=O)[O-])cnc1COc1ccc([N+](=O)[O-])cc1C(F)(F)F
173	COC1(N(C)C)C=CC(C(=O)Nc2ccccc2)=CC1 (configuration not stated)
50 to 51	CCOC(=O)CCc1cn(-c2ccc(C(F)(F)F)cn2)nc1C
153 to 154	CC1(CCN2CCN(C(C)(C)C)C(=O)C2)Cn2cc([N+](=O)[O-])nc2O1 (configuration not stated)
153 to 155	COc1cccc(NC(=O)NCC(=O)N(CC(=O)OC(C)(C)C)c2ccccc2C(=O)c2ccccc2)c1
85 to 86	CNC(Cc1ccccc1NC(=O)C(C)(C)C)c1ccccc1 (configuration not stated)
240 to 241	CC(=O)N1CCc2c([nH]c3ccccc23)C1
118 to 120	CC(O)c1ccc(NS(C)(=O)=O)c(Sc2ccc(F)cc2F)c1 (configuration not stated)
33 to 33.5	[N-]=[N+]=NCc1ccc(C(=O)c2ccc(Cl)cc2)c(Cl)c1
132	Cc1cc(C)c(Oc2cc(Nc3ccc(C#N)cc3)c([N+](=O)[O-])cc2[N+](=O)[O-])c(C)c1
91	COC(=O)Cc1ccc2oc(-c3ccc(OC)c(OC)c3)c(SC)c2c1
70 to 71	CCCCC(Cc1ccc(OCCNC(=O)c2ccc(-c3cc(C)c(OCOC)c(C)c3)cc2)cc1)C(=O)OCC (configuration not stated)
160	CC(C)(C)c1cc(C(=O)N2CCN(c3ccc([N+](=O)[O-])cc3)CC2)cc(C(C)(C)C)c1O
157 to 159	COc1ccc2c(=O)cc(CS(C)=O)oc2c1 (configuration not stated)
